A short description of data set [1]: Apparent permeability across human Caco2 cells. Format: ADME, cell-based. The note with it: Caco-2.
The nature of data set [2]: Half life in Cynomolgus monkey at 2 mg/kg, po administered as single dose. It counts as ADME, organism-based, Macaca fascicularis. The note with it: in vivo.
A short description of data set [3]: Inhibition of HCV genotype 4a NS3/4A protease. Details: species or system Hepatitis C virus subtype 4a; call rule not given here.
Data set [4] in a line: Cytotoxicity against human hepatocytes. Format: cell-based, Hepatocyte.
A short description of data set [5]: Inhibition of HCV genotype 1a NS3/4A protease. Details: species or system Hepatitis C virus subtype 1a.
Data set [6] in a line: AUC (0 to 24 hrs) in CD-1 mouse at 2 mg/kg, po administered as single dose. It counts as ADME, organism-based. The note with it: in vivo. Details: dose 2 mg/kg, time < 24 hr, route oral.
The next data set has as its system Hepatitis C virus. In words: Antiviral activity against HCV genotype 1b infected in human HuH7 cells after 3 days by luciferase assay. The note with it: Huh-7, 72 h. It counts as functional, organism-based, Hepacivirus hominis.
Data set [7] deals with T1, UDP-glucuronosyltransferase 1A1 (Homo sapiens, UniProt P22309).
T1 sequence (P22309 whole entry): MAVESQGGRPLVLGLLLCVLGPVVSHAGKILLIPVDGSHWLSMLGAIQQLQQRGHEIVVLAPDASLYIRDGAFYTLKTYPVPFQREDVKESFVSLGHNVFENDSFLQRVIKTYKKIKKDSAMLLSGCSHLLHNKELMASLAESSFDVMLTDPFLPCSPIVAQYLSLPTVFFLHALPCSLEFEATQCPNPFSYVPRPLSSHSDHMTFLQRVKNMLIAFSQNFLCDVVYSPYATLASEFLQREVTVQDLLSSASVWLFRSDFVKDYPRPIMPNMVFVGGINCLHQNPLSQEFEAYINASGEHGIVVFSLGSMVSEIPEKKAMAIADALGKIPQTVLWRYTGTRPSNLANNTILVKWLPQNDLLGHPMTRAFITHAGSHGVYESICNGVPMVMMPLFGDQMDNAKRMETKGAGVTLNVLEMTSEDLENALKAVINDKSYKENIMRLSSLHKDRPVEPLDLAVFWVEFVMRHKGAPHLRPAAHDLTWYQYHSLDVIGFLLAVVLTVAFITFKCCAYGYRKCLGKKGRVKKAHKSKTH
In words: Inhibition of human UGT1A1. It counts as ADME.

A short description of data set [8]: Cmax in Sprague-Dawley rat plasma at 2 mg/kg, iv administered as single dose measured after 8 hrs. It counts as ADME, organism-based. Details: dose 2 mg/kg, route intravenous.
Data set [9] can be described thus: Cytotoxicity against monkey hepatocytes. As to conditions: rhesus monkey. It counts as cell-based, Macaca mulatta, Hepatocyte.
A short description of data set [10]: Oral bioavailability in Sprague-Dawley rat at 10 mg/kg administered as single dose. It counts as ADME, organism-based. The note with it: in vivo.
Data set [11] in a line: Oral bioavailability in Cynomolgus monkey at 2 mg/kg administered as single dose. Format: ADME, organism-based, Macaca fascicularis. As to conditions: in vivo.
Data set [12] can be described thus: Clearance in Cynomolgus monkey at 2 mg/kg, iv administered as single dose. Format: ADME, organism-based, Macaca fascicularis. As to conditions: in vivo.
Data set [13] can be described thus: Tmax in Sprague-Dawley rat at 2 mg/kg, iv administered as single dose. It counts as ADME, organism-based. As to conditions: in vivo.
In data set [14] the target is Voltage-gated inwardly rectifying potassium channel KCNH2 (Homo sapiens, UniProt Q12809). In words: Inhibition of human ERG expressed in HEK293 cells. It counts as cell-based.
Data set [15] in a line: Plasma concentration in CD-1 mouse at 2 mg/kg, po administered as single dose measured after 24 hrs. Format: ADME, organism-based.
In the next data set the target is Cytochrome P450 3A4 (Homo sapiens, UniProt P08684). In words: Inhibition of human CYP3A4. Format: ADME.
The target in another data set is Cytochrome P450 2D6 (Homo sapiens, UniProt P10635). Kind of data set: Inhibition of human CYP2D6. Format: ADME.

Molecules are shown by their SMILES.

Experimental findings from ChEMBL document CHEMBL3632591, “Discovery and structural diversity of the hepatitis C virus NS3/4A serine protease inhibitor series leading to clinical candidate IDX320” (Bioorg Med Chem Lett, 2015) are described below.

Chain of Voltage-gated inwardly rectifying potassium channel KCNH2 (Q12809 whole entry): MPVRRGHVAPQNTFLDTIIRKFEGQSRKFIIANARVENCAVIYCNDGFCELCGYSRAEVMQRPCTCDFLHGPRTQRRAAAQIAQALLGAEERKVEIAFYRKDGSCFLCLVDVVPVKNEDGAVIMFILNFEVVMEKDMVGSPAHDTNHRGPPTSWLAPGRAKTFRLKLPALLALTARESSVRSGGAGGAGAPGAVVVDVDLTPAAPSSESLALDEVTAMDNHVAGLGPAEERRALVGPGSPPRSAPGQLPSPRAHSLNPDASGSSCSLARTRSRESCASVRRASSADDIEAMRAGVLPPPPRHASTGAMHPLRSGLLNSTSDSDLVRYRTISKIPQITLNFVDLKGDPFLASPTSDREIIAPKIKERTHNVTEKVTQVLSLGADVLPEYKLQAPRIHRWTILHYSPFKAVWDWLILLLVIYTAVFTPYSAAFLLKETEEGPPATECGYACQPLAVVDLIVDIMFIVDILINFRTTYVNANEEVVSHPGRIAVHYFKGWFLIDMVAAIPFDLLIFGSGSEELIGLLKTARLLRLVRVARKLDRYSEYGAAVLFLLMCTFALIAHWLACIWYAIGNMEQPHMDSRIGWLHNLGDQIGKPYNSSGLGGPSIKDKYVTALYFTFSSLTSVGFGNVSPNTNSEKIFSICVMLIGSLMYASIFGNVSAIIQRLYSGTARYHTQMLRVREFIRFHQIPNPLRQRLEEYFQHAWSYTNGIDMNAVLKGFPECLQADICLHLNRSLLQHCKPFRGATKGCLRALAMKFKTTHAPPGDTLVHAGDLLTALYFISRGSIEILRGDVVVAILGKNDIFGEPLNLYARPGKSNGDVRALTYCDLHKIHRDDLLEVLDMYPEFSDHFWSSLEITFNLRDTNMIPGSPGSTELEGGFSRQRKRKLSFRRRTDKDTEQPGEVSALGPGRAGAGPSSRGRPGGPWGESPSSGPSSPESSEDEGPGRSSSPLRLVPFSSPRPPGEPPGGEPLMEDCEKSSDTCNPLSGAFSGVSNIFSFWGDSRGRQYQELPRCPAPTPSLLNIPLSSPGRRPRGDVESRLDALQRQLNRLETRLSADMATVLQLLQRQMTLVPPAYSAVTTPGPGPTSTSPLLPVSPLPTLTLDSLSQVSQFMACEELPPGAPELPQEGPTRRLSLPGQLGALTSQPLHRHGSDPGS
Chain of Cytochrome P450 2D6 (P10635 whole entry): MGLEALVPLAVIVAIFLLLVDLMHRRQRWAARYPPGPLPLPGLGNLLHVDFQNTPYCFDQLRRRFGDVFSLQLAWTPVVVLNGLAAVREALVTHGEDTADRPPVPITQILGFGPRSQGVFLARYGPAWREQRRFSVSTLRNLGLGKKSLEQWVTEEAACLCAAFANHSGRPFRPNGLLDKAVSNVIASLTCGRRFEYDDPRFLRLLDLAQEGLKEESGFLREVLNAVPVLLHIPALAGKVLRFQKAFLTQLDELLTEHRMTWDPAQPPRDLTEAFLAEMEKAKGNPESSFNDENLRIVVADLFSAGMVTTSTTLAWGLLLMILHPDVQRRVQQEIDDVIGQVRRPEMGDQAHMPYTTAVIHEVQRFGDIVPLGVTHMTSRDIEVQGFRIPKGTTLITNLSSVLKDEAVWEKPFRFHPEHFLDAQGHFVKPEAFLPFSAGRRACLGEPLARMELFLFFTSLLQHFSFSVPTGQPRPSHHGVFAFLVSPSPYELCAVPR
Chain of Cytochrome P450 3A4 (P08684 whole entry): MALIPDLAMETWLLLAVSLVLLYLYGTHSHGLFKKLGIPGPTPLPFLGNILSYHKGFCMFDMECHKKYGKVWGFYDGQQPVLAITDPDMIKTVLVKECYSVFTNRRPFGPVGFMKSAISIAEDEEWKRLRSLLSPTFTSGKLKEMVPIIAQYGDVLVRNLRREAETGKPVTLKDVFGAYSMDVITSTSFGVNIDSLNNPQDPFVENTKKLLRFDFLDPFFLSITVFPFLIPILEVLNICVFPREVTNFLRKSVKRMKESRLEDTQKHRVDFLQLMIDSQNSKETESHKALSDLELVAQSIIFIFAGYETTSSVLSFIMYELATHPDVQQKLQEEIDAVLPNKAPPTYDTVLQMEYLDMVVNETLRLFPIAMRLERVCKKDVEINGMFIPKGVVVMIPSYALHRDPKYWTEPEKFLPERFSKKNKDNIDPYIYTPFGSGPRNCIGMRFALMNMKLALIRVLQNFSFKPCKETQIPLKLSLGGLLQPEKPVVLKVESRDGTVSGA

As for `COc1ccc2c(O[C@H]3CCN4C(=O)N(C)CCCCC=C[C@@H]5C[C@@]5(C(=O)NS(=O)(=O)C5(C)CC5)NC(=O)[C@@H]4C3)cc(-c3nc(C(F)(F)F)cs3)nc2c1C`, in data set [1], the Papp was 1.8 ×10⁻⁶ cm/s. This molecule also had a half-life in data set [2] of 7.6 h. Also, the IC50 in data set [3] was 0.8 nM; in data set [5], 0.8 nM; in data set [7], at least 10000 nM; at Cytochrome P450 3A4 it was at least 10000 nM; at Cytochrome P450 2D6, at least 10000 nM. Also, the CC50 in data set [4] and in [9] was over 10000 nM each time. In data set [6], this molecule yielded an AUC(0-t) at 24 h of 1410 ng·h/mL. This molecule came in with an EC50 in the data set on Hepatitis C virus of 0.7 nM. The concentration in data set [8] peaked (Cmax) at 2060 ng/mL. Besides, the bioavailability turned out to be 45% in [10] and 107% in data set [11]. In [12], the clearance was 3.83 mL/min/kg. In addition, the Tmax in data set [13] is 4.8 min. Further, the “inhibition (INH)” value in data set [14] is “Not Active”. For the same molecule, the concentration at 24 h in data set [15] was found to be 1.5 ng/mL.

For orientation: Papp means the rate of passage across a membrane or cell layer, normalised by area and donor concentration. In general, half-life refers to how long it takes for the measured level to halve. As a reminder, the IC50 is the point on the concentration scale where inhibition reaches its midpoint. The term CC50 denotes the concentration that lowers cell viability or growth by half. Usually AUC(0-t) stands for exposure summed from dosing to a finite time, without extrapolation to infinity. The EC50 is the concentration needed to bring the measured effect to its halfway point. The Cmax is the highest concentration seen after dosing. A word on the clearance: it is the rate of elimination divided by the concentration. In general, Tmax refers to the time at which the peak concentration occurs.
